In patent publication US10226509B2, “Lymphangiogenesis inhibitors for cancer and for graft survival” (TUFTS UNIVERSITY, priority 2014, dated 2019):
Read-outs that look alike come from different tables or passages of the source. Each block holds one molecule with its values, some of them ahead of it.

Key:
[1] = system: VEGF-C-induced LEC sprouting; test: LEC sprouting assay: VEGF-C-induced sprouting; assay type: cell-based, human; conditions: VEGF-C 50 ng/ml, 24 h
Procedure: (§1) LEC spheroids were generated by seeding primary LECs at passage 4 or 5 in each well of 384-well hanging-drop plates (3D Biomatrix) in complete EGM-2 MV medium containing 0.25% methyl cellulose according to the manufacturer's instructions (750 cells/well). After 18 hours, LEC spheroids were collected, resuspended in serum-free EBM-2 basal medium, and mixed with collagen solution (PureCol collagen, Advanced BioMatrix, 2.2 mg/ml in M199 medium, pH adjusted to 7.4 with NaHCO3 and NaOH). Aliquots of the LEC spheroid/collagen mixture (250 μl/well of 48-well plate) were incubated in the presence or absence of various test agents for 24 hr. At the end of the incubation period, spheroids were stained with Calcein AM (Invitrogen, 1 μg/mL, 37° C., and 30 min). Fluorescent images were acquired using the EVOS FL cell imaging system, pixels were inverted for better visualization and cumulative length of each sprout was calculated. Results were expressed as fold change compared to corresponding controls. It was observed that sprout lengths vary from passages to passages. Test agents used included thiodigalactoside (10 to 50 mM, Carbosynth), 3′-sialyl lactose (2 to 10 mM, Carbosynth), 6′-sialyl lactose (2 to 10 mM, Carbosynth), LY294002 (20 μM, Abeam), U0126 (20 μM, Abeam), PD0325901 (1 μM, Selleckchem), human VEGFR-3-Fc chimera (10 μg/ml, R&D), human VEGFR-2-Fc chimera (10 μg/ml, R&D), Avastin (10 μg/ml, bevacizumab, Genentech/Roche), human control IgG (10 μg/ml, Southern Biotech), anti-human podoplanin functional grade antibody (10 μg/ml, eBioscience), and rat IgG2a κ isotype control functional grade antibody (10 μg/ml, eBioscience).
In this assay, the LEC spheroids were treated with VEGF-C (50 ng/ml) in the presence or absence of 0.75 μM of Gal-8 for 24 hours, and then accumulated sprout lengths were quantified. […] Synergistic effect of Gal-8 on VEGF-C-induced LEC sprouting was dose-dependent. […] At concentrations >0.5 μM Gal-8, there was no further increase in the degree of VEGF-C-induced lymphangiogenesis (FIG. 4C).
To further characterize the role of carbohydrate-mediated recognition in VEGF-C-induced lymphangiogenesis, LEC spheroids were stimulated with VEGF-C (50 ng/ml) in the presence or absence of three different galectin inhibitors. […] Therefore, the data establishes the critical role of Gal-8-mediated carbohydrate-mediated recognition in VEGF-C-induced lymphangiogenesis.

[2] = system: Gal-8-induced LEC sprouting; test: LEC sprouting assay: Gal-8-induced sprouting with inhibitors or knockdown; assay type: cell-based, human
Procedure: as §1, with “It was observed that sprout lengths vary from passages to passages.” left out
To determine the role of these pathways on Gal-8-induced lymphangiogenesis, LEC spheroids were stimulated with Gal-8 (0.75 μM) in the presence or absence of PI3K inhibitor (LY294002, 20 μM) and two different MEK inhibitors (U0126, 20 μM; PD0325901, 1 μM). After overnight treatment with Gal-8, accumulated sprout lengths were quantified.

VEGFR-3 = test: Affinity precipitation assay, VEGFR-3; assay type: binding, human; conditions: 0.1 M sugar
Procedure: (§2) Five mg of plant lectins (Vector Labs) and galectins were conjugated to 330 mg of Pierce® NHS-activated agarose dry resin in accordance with the manufacturer's instructions (Thermo Scientific). Primary LECs (Lonza) were lysed in Triton lysis buffer (20 mM Tris-HCl, pH 7.4; 150 mM NaCl; 0.5% Triton X-100 with protease inhibitor cocktail). LEC lysates (250 μg in 500 μL lysis buffer supplemented with 10 mM MgCl2) were incubated with 40 μL (50% slurry) of agarose-conjugated lectins (4° C., overnight). Beads were pelleted by centrifugation at 3000 rpm for 1 min. Non-specific binding proteins were removed by washing the beads with Triton lysis buffer once and PBS twice. Supernatants were discarded; bound proteins were eluted by boiling the beads with 20 μL of 2× Laemmli sample buffer for 7 min, and examined by western blotting.
Next, a series of examples were performed to determine whether VEGF-C-induced lymphangiogenesis is dependent on Gal-8. To determine whether VEGFR-3 is a Gal-8-binding protein, LEC lysates were incubated with Gal-8-conjugated agarose beads in the presence or absence of 0.1 M of lactose (an inhibiting sugar) or sucrose (a non-inhibiting sugar). Bound proteins were examined and were compared to total cell lysates (input) by western blot using anti-VEGFR-3 antibody. Three forms of VEGFR-3 (125 kDa, 175 kDa and 195 kDa) were detected in total cell lysates (FIG. 5A) (Bando, H., et al. 2004. Int J Cancer 111:184-191.). […] Having shown that Gal-8 binds to VEGFR-3 in LECs and that the carbohydrate-binding activity of Gal-8 is required for the synergistic effect of Gal-8 on VEGF-C-induced LEC sprouting, it was of interest to determine whether VEGFR-3 bears 3′-sialylated glycans.

PDPN = molecular target: T1, PDPN (Homo sapiens, UniProt Q86YL7); test: Affinity precipitation assay, PDPN; assay type: binding; conditions: for inhibition of binding of PDPN to Gal-8: 0.1 M sugar; for binding of PDPN (in words): galectin-conjugated agarose beads, LEC lysates
T1 construct: Within the whole cell lysate, an anti-PDPN-reactive 43-kDa component was detected; host or cells: primary lymphatic endothelial cells (LECs)
T1 sequence (Q86YL7 23-162): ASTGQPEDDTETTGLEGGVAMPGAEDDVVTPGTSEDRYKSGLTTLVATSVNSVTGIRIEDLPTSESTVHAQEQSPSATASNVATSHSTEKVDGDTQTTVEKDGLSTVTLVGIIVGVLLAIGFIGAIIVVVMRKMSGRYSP
Procedure: as §2
To determine whether PDPN binds to Gal-8 in a carbohydrate-dependent manner, LEC lysates were incubated with Gal-8-conjugated to agarose beads in the presence or absence of 0.1 M of lactose (an inhibiting sugar) or sucrose (a non-inhibiting sugar). Bound proteins were examined with total cell lysates (input) by western blot using an anti-PDPN antibody. To determine specificity of PDPN binding to Gal-8, LEC lysates were also incubated with agarose beads conjugated to Gal-1, Gal-3 and Gal-7. Within the whole cell lysate, an anti-PDPN-reactive 43-kDa component was detected (FIG. 7A).

LEC spheroids = test: LEC sprouting assay: stimulation by galectins alone; assay type: cell-based, human; conditions: 24 hours
Procedure: as §1
To assess the effect of galectins on LEC sprouting, LEC spheroids were embedded in a collagen matrix and incubated with media containing various test agents. After 24 hours, the cumulative length of the sprouts for each spheroid was quantified by ImageJ. […] Multiple approaches were used to determine whether the stimulatory effect of Gal-8 on LEC sprouting was carbohydrate-dependent.

[3] = Gal-8 0.75 μM, 24 h, TDG 20 mM, LY294002 20 μM, U0126 20 μM, PD0325901 1 μM, Avastin 10 μg/ml, Obtustatin 4 μM, antibodies 20 μg/ml, siRNA-transfected LECs

Molecule: CC(=O)N[C@H]1[C@H]([C@H](O)[C@H](O)CO)O[C@@](O[C@H]2[C@@H](O)[C@@H](CO)O[C@@H](O[C@H]3[C@H](O)[C@@H](O)C(O)O[C@@H]3CO)[C@@H]2O)(C(=O)O)C[C@@H]1O (some centres unmarked) [3′-SL, 3′-sialyllactose]
effect on VEGF-C-induced LEC sprouting (in words) [1]: inhibited
inhibition of Gal-8-induced LEC sprouting ([2]; at 2 mM concentration): 95%
nH of inhibition of galectin-8-mediated LEC sprouting ([2]; galectin-8 at 0.75 μM): 3.38
IC50 ([2]; galectin-8 at 0.75 μM, read-out: IC50 of the inhibitory effect on galectin-8-mediated LEC sprouting): 1250 µM
Ki ([2]; galectin-8 at 0.75 μM, read-out: Ki (Ki=IC50/(1+[A]/EC50))): 1670 µM

Molecule: CC(=O)N[C@H]1[C@H]([C@H](O)[C@H](O)CO)O[C@@](OC[C@H]2O[C@@H](O[C@H]3[C@H](O)[C@@H](O)[C@H](O)O[C@@H]3CO)[C@H](O)[C@@H](O)[C@H]2O)(C(=O)O)C[C@@H]1O [6′-SL, 6′-sialyl lactose]
effect on Gal-8-induced LEC sprouting (in words) [2, 3]: had no effect

Molecule: O=C(NOC[C@H](O)CO)c1ccc(F)c(F)c1Nc1ccc(I)cc1F [PD0325901]
effect on Gal-8-induced LEC sprouting (in words) [2, 3]: markedly inhibited

Molecule: N#CC(=C(/N)Sc1ccccc1N)/C(C#N)=C(\N)Sc1ccccc1N [U0126]
effect on Gal-8-induced LEC sprouting (in words) [2]: markedly inhibited

Molecule: Gal-8Q47A: Gal-8 mutant which has lost its ability to bind to α2,3-sialylated glycans
promotion of LEC sprouting by the agent alone (in words) (LEC spheroids): not promote lymphangiogenesis

Molecule: Obtustatin: a blocking peptide against integrin α1β1 (CTTGPCCRQCKLKPAGTTCWKTSLTSHYCTGKSCDCPLYPG) [reference compound]
effect on VEGF-C-induced LEC sprouting (in words) [1]: inhibited
effect on Gal-8-induced LEC sprouting (in words) [2, 3]: inhibited

B1: VEGFR-3-Fc: human VEGFR-3-Fc chimera (protein)
chain: YSMTPPTLNITEESHVIDTGDSLSISCRGQHPLEWAWPGAQEAPATGDKDSEDTGVVRDCEGTDARPYCKVLLLHEVHANDTGSYVCYYKYIKARIEGTTAASSYVFVRDFEQPFINKPDTLLVNRKDAMWVPCLVSIPGLNVTLRSQSSVLWPDGQEVVWDDRRGMLVSTPLLHDALYLQCETTWGDQDFLSNPFLVHITGNELYDIQLLPRKSLELLVGEKLVLNCTVWAEFNSGVTFDWDYPGKQAERGKWVPERRSQQTHTELSSILTIHNVSQHDLGSYVCKANNGIQRFRESTEVIVHENPFISVEWLKGPILEATAGDELVKLPVKLAAYPPPEFQWYKDGKALSGRHSPHALVLKEVTEASTGTYTLALWNSAAGLRRNISLELVVNVPPQIHEKEASSPSIYSRHSRQALTCTAYGVPLPLSIQWHWRPWTPCKMFAQRSLRRRQQQDLMPQCRDWRAVTTQDAVNPIESLDTWTEFVEGKNKTVSKLVIQNANVSAMYKCVVSNKVGQDERLIYFYVTTIPDGFTIESKPSEELLEGQPVLLSCQADSYKYEHLRWYRLNLSTLHDAHGNPLLLDCKNVHLFATPLAASLEEVAPGARHATLSLSIPRVAPEHEGHYVCEVQDRRSHDKHCHKKYLSVQALEAPRLTQNLTDLLVNVSDSLEMQCLVAGAHAPSIVWYKDERLLEEKSGVDLADSNQKLSIQRVREEDAGRYLCSVCNAKGCVNSSASVAVEGSEDKGSMEI
modifications: left off: a dimerising Fc or GST
notes: human VEGFR-3-Fc chimera
effect on VEGF-C-induced LEC sprouting (in words) [1]: inhibited
% inhibition of Gal-8-induced LEC sprouting ([2]; Gal-8 0.75 μM, 10 μg/ml, 24 hours): 37%

Further lines, with some results ahead:

inhibition of binding of VEGFR-3 to Gal-8 (VEGFR-3): inhibited
inhibition of binding of PDPN to Gal-8 (PDPN): inhibited
Molecule: OC[C@H]1O[C@@H](O[C@H]2[C@H](O)[C@@H](O)C(O)O[C@@H]2CO)[C@H](O)[C@@H](O)[C@H]1O (some centres unmarked) [lactose, reference compound]

inhibition of binding of VEGFR-3 to Gal-8 (VEGFR-3): not sucrose, a noncompeting sugar
inhibition of binding of PDPN to Gal-8 (PDPN): not by sucrose
Molecule: OC[C@H]1O[C@@](CO)(O[C@H]2O[C@H](CO)[C@@H](O)[C@H](O)[C@H]2O)[C@@H](O)[C@@H]1O [sucrose, reference compound]

binding of PDPN (in words) (PDPN): does not bind
Molecule: Gal-1: recombinant galectin-1
effect on VEGF-C-induced LEC sprouting (in words) [1]: did not potentiate
promotion of LEC sprouting by the agent alone (in words) (LEC spheroids): not Gal-1, Gal-3 or Gal-7, promotes LEC sprouting

binding of PDPN (in words) (PDPN): does not bind
Molecule: Gal-3: recombinant galectin-3
effect on VEGF-C-induced LEC sprouting (in words) [1]: did not potentiate
promotion of LEC sprouting by the agent alone (in words) (LEC spheroids): not Gal-1, Gal-3 or Gal-7, promotes LEC sprouting

binding of PDPN (in words) (PDPN): does not bind
Molecule: Gal-7: recombinant galectin-7
effect on VEGF-C-induced LEC sprouting (in words) [1]: did not potentiate
promotion of LEC sprouting by the agent alone (in words) (LEC spheroids): not Gal-1, Gal-3 or Gal-7, promotes LEC sprouting
